For one test, the system named is M. flavus Nis^R. Put plainly: Determination of the Minimal Inhibitory Concentration (Example 2). The test is classed as cell-based, Micrococcus flavus. The conditions noted are these: cross-resistance of the Nis^R strains. The protocol:
M. flavus and L. lactis were grown overnight at their optimum growth conditions. The Nis^R variants were grown in the presence of nisin (3 mg/L). The MIC values were estimated essentially as described before (23).

Another test relates to L. lactis IL1403 Nis^R. Description: MIC determination (nisin sensitivity assay). The test is classed as cell-based, Lactococcus lactis. Here is the method: Generation of nisin-resistant variants of L. lactis IL1403― A nisin stock solution was derived from nisaplin, (2.5% nisin, Aplin and Barrett, Danisco, Denmark) as described earlier (44). Nisin-resistant isogenic variants of L. lactis IL1403 were obtained by growing the strain in broth, while stepwise increasing the nisin concentration, as described before (29).
Nisin sensitivity assays― Sensitivity to nisin was determined essentially as described before (32) for the strains L. lactis NZ9000, L. lactis NZ9000 ΔgalAMK, L. lactis MG1363 and L. lactis MG1363 ΔdltD (16). For the strains of L. lactis NZ9000 (pNZ8048) and L. lactis NZ9000 (pJK1), the cells were diluted 50-fold in fresh medium. At an OD600 of 0.2 the cells of both cultures were induced with 4 µg/L nisin for 2 h. Nisin induction of PnisA in the pNZ8048 derivatives was performed as described by de Ruyter et al. (12). Outgrowth in all wells was determined at the moment when wells containing cells without nisin had reached an OD595 of 0.8, measured in an ELISA micro titer plate reader (Spectramax plus 384, Molecular Devices, Wageningen, the Netherlands). MIC values were calculated from the lowest concentration of nisin at which growth of the test strain was inhibited.

The results in this text go back to patent EP1609872A1, “A method for selecting a gene involved in nisin resistance in bacteria” (Stichting voor de Technische Wetenschappen, priority 2004, dated 2005).

For the compound `C=C1NC(=O)[C@@H]2NC(=O)[C@H](CC(C)C)NC(=O)[C@H](NC(=O)[C@@H]3CS[C@@H](C)[C@@H](NC(=O)[C@H](Cc4ccccc4)NC(=O)[C@@H]4NC(=O)[C@@H](N)CS[C@H]4C)C(=O)N[C@@H](CC(C)C)C(=O)N4CCC[C@H]4C(=O)NCC(=O)NCC(=O)NCC(=O)NCC(=O)N[C@@H](C(C)C)C(=O)N3)[C@H](C)SC[C@H](NC(=O)[C@H](CCC(=O)O)NC1=O)C(=O)N[C@@H]([C@@H](C)CC)C(=O)N/C=C\S[C@H]2C` [Mersacidin, mersacidin], the “change in MIC in the nisin resistant strain” value in the test with M. flavus Nis^R is reported as “No change”. Besides, the cross-resistance entry in the test with L. lactis IL1403 Nis^R is given as “no cross-resistance”.
